Data as given in patent publication US12459956B2, “Heterobicyclic carboxamides and uses thereof” (ALCON INC., priority 2019, dated 2025).

Each molecule was assayed against ROCK1 (Homo sapiens (Human), UniProt Q13464) (assay: ROCK Kinase Inhibition Assay (ROCK1)). Details: KINASE-GLO luminescent kinase assay.
Type: biochemical
Experimental: All compounds were initially prepared as 10 mM stocks in anhydrous dimethylsulfoxide (DMSO). A 20 μL aliquot of the 10 mM solutions was transferred to individual wells in column 1 of a 96-well polypropylene microtiter plate (Corning #3363) and diluted with DMSO to give a final compound concentration of 4 mM. Test compounds were then serially diluted 1:5 in DMSO for an 11-point concentration response and further diluted in the assay buffer bringing all compound concentrations to a final range of 100 μM to […] in 2.5% DMSO. The assay was performed in white 96-well, flat-bottom, half-area, non-binding assay plate (Corning #3642) in assay buffer consisting of 20 mM HEPES (pH 7.5), 10 mM MgCl2*6H2O, 100 μM sodium orthovanadate, 0.05% CHAPS and 0.1% bovine serum albumin. […] The reaction was initiated by the addition of 10 μL of 4× stock solution ATP (2 μM). […] Protein kinase activity was quantitated using Promega's KINASE-GLO™ luminescent Kinase Assay Kit according to the manufacturer's directions. […] Percent of Control (POC) values were determined for each concentration of compound tested according to the equation: POC=((Test well value−BKG)/(CTRL−BKG))*100 IC50 values were calculated using the following 4-parameter logistic curve-fitting algorithm: f(x)=(A+((B−A)/(1+((x/C)^D)))) IC50 values were converted to Ki values using the following Cheng-Prusoff Equation: Ki=IC50/(1+([ATP]/Km ATP])). […]

Sequence of ROCK1 (Q13464 whole entry, species assumed): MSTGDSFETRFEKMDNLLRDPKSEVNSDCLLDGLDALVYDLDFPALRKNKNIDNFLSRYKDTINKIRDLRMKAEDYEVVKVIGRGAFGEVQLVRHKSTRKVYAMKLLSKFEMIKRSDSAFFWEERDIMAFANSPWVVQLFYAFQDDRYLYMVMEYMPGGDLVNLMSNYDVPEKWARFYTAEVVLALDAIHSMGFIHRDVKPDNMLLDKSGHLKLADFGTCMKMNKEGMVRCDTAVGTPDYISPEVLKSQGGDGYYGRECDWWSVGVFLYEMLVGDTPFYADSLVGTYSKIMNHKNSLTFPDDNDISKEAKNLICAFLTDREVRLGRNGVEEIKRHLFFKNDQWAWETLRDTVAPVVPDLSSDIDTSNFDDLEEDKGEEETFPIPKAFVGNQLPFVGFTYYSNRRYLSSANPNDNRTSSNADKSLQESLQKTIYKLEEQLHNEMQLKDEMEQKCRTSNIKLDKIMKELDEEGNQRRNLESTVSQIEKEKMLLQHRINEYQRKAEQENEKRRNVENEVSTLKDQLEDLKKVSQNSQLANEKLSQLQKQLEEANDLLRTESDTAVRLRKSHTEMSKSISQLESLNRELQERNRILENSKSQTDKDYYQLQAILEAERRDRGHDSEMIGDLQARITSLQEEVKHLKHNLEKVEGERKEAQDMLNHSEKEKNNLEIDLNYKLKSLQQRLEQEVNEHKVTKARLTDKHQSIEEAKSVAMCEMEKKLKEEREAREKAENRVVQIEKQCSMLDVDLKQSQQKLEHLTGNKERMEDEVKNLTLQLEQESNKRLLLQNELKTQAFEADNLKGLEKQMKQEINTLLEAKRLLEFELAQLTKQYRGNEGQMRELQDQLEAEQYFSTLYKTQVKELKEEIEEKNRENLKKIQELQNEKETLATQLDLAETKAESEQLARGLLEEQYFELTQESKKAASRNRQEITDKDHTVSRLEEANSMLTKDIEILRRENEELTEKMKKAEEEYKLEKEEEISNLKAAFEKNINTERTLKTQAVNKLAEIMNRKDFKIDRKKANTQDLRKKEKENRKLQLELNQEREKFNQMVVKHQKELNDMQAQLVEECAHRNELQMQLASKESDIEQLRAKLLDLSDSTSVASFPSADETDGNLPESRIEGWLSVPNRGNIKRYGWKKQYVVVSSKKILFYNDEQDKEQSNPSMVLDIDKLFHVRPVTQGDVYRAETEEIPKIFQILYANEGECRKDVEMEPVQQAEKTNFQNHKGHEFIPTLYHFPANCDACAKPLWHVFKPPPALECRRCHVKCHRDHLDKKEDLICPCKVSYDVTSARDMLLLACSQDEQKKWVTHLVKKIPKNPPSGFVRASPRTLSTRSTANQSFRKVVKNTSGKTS

IC50 [nM]	Compound
7	O=C(Nc1nc2ccncc2s1)[C@@H]1CC1c1ccc(S(=O)(=O)Nc2ccccn2)cc1 (mixture of isomers) [Compound 3]
43	O=C(Nc1cc2c(Cl)cncc2s1)C1CC1c1ccccc1 (centres unmarked) [Compound 19]

The molecules below were run against JAK2 (Homo sapiens (Human), UniProt O60674) (assay: JAK Kinase Assay (JAK2)). Details: KINASE-GLO luminescent kinase assay.
Sequence of JAK2 (O60674 whole entry, species assumed): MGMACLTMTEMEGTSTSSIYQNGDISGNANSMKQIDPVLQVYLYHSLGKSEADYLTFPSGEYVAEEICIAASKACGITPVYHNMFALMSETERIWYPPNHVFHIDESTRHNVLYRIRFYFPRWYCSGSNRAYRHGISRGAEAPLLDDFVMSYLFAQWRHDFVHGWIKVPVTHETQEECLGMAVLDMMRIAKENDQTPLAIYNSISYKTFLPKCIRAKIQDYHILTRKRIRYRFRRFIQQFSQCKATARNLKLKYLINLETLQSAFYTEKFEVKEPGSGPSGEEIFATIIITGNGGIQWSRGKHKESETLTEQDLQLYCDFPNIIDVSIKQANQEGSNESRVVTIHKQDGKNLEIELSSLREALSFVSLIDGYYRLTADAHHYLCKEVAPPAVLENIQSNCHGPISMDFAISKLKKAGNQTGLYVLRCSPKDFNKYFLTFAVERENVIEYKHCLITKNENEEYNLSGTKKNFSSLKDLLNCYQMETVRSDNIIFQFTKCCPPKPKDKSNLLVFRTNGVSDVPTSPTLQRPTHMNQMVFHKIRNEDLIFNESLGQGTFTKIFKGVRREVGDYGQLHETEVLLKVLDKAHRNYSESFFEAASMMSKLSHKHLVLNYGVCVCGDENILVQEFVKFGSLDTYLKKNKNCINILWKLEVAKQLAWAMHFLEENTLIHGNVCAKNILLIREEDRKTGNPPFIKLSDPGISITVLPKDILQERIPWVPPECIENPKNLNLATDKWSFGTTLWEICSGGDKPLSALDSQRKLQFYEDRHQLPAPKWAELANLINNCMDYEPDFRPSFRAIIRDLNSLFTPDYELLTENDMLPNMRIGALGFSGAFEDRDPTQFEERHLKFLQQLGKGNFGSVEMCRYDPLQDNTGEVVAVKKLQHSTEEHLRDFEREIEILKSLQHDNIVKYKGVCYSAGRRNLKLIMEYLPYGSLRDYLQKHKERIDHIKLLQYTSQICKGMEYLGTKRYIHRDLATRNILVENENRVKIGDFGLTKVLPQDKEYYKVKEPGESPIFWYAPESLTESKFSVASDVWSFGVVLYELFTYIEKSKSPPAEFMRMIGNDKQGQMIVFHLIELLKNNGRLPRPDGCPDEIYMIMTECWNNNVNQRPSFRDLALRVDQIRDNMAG
Type: biochemical

IC50 [nM]	Compound
8.9	Cc1cncc2sc(NC(=O)[C@@H]3C[C@H]3c3ccc(S(=O)(=O)Nc4ccccn4)cc3)cc12 (racemic) [Compound 5]
22	O=C(Nc1ccc2cnccc2n1)[C@@H]1CC1c1ccc(S(=O)(=O)Nc2ccccn2)cc1 (mixture of isomers) [Compound 4]
22	O=C(Nc1ccc2cnccc2n1)C1CC1c1ccc(S(=O)(=O)Nc2ccccn2)cc1 (centres unmarked) [Compound 22]

What follows are molecules tested against ROCK2 (Homo sapiens (Human), UniProt O75116) (assay: ROCK Kinase Inhibition Assay (ROCK2)). Details: KINASE-GLO luminescent kinase assay.
Sequence of ROCK2 (O75116 whole entry, species assumed): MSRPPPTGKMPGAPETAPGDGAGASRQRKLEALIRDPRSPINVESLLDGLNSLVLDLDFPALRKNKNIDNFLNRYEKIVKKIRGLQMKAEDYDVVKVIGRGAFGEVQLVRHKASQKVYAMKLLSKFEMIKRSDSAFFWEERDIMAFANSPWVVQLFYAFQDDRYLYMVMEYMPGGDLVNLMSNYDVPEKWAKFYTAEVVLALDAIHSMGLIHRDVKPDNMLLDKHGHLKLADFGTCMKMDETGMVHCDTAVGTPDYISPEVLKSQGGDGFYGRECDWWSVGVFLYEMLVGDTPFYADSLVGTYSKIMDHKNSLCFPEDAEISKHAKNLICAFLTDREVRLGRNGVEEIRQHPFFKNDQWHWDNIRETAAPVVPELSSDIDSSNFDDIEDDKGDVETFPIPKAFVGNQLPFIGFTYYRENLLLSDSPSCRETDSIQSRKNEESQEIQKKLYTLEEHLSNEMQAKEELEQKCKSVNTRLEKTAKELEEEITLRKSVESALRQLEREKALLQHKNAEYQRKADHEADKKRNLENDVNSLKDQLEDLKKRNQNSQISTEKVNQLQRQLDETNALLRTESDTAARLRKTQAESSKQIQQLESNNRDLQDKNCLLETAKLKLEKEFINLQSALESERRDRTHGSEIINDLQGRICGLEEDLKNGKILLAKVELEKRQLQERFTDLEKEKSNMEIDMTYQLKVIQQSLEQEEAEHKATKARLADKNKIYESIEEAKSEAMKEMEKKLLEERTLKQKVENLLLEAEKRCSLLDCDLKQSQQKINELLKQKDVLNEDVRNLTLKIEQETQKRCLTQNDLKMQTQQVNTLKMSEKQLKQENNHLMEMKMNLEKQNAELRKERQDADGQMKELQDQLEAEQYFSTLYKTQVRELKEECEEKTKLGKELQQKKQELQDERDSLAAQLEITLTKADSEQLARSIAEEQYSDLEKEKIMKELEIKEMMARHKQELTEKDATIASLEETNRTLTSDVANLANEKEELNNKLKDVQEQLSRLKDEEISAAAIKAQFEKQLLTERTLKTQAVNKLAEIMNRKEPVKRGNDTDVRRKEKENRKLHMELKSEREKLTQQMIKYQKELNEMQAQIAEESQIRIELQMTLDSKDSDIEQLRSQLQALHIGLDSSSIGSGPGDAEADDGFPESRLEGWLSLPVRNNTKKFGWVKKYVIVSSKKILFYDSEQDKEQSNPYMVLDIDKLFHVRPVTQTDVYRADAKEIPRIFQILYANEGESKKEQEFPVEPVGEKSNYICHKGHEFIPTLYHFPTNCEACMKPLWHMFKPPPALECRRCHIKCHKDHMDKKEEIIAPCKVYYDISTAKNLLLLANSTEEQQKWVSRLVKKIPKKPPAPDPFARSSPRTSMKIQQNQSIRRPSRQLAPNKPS
Type: biochemical
Experimental: All compounds were initially prepared as 10 mM stocks in anhydrous dimethylsulfoxide (DMSO). A 20 μL aliquot of the 10 mM solutions was transferred to individual wells in column 1 of a 96-well polypropylene microtiter plate (Corning #3363) and diluted with DMSO to give a final compound concentration of 4 mM. Test compounds were then serially diluted 1:5 in DMSO for an 11-point concentration response and further diluted in the assay buffer bringing all compound concentrations to a final range of 100 μM to […] in 2.5% DMSO. The assay was performed in white 96-well, flat-bottom, half-area, non-binding assay plate (Corning #3642) in assay buffer consisting of 20 mM HEPES (pH 7.5), 10 mM MgCl2*6H2O, 100 μM sodium orthovanadate, 0.05% CHAPS and 0.1% bovine serum albumin. […] The reaction was initiated by the addition of 10 μL of 4× stock solution ATP (2 μM). Reactions were thoroughly mixed manually, covered and allowed to incubate at room temperature for 75 min. Protein kinase activity was quantitated using Promega's KINASE-GLO™ luminescent Kinase Assay Kit according to the manufacturer's directions. ATP concentrations remaining in Test wells following the termination of the enzymatic reaction were compared against control wells containing equivalent amounts of DMSO containing no inhibitor (CTRL). […] Percent of Control (POC) values were determined for each concentration of compound tested according to the equation: POC=((Test well value−BKG)/(CTRL−BKG))*100 IC50 values were calculated using the following 4-parameter logistic curve-fitting algorithm: f(x)=(A+((B−A)/(1+((x/C)^D)))) IC50 values were converted to Ki values using the following Cheng-Prusoff Equation: Ki=IC50/(1+([ATP]/Km ATP])). JAK Kinase Assays.

IC50 [nM]	Compound
30	O=C(Nc1ccc2cnccc2n1)C1CC1c1ccncc1 (centres unmarked) [Compound 17]
30	O=C(Nc1nc2ccncc2s1)C1CC1c1ccncc1 (centres unmarked) [Compound 18]
111	O=C(Nc1cc2c(Cl)cncc2s1)C1CC1c1ccncc1 (centres unmarked) [Compound 21]

More lines, now with the values behind:

Compound	IC50 [nM]
O=C(Nc1ccc2cnccc2n1)C1CC1c1ccccc1 (centres unmarked) [Compound 11]	7
Cc1cncc2sc(NC(=O)[C@@H]3C[C@H]3c3ccccc3)cc12 [Compound 13]	18
O=C(Nc1ccc2cnccc2n1)[C@@H]1CC1c1ccc(S(=O)(=O)Nc2ccccn2)cc1 (mixture of isomers) [Compound 4]	6
O=C(Nc1nc2ccncc2s1)C1CC1c1ccccc1 (centres unmarked) [Compound 12]	12
Cc1cncc2sc(NC(=O)C3CC3c3ccccc3)cc12 (centres unmarked) [Compound 16]	54
Cc1cncc2sc(NC(=O)C3CC3c3ccncc3)cc12 (centres unmarked) [Compound 14]	230
O=C(Nc1nc2ccncc2s1)[C@@H]1CC1c1ccc(S(=O)(=O)Nc2ccccn2)cc1 (mixture of isomers) [Compound 3]	6
Cc1cncc2sc(NC(=O)C3CC3c3cc(C(=O)NCc4ncccn4)cs3)cc12 (centres unmarked) [Compound 2]	5

What follows are molecules tested against TYK2 (Homo sapiens (Human), UniProt P29597) (assay: JAK Kinase Assay (TYK2)). Details: KINASE-GLO luminescent kinase assay.
Sequence of TYK2 (P29597 whole entry, species assumed): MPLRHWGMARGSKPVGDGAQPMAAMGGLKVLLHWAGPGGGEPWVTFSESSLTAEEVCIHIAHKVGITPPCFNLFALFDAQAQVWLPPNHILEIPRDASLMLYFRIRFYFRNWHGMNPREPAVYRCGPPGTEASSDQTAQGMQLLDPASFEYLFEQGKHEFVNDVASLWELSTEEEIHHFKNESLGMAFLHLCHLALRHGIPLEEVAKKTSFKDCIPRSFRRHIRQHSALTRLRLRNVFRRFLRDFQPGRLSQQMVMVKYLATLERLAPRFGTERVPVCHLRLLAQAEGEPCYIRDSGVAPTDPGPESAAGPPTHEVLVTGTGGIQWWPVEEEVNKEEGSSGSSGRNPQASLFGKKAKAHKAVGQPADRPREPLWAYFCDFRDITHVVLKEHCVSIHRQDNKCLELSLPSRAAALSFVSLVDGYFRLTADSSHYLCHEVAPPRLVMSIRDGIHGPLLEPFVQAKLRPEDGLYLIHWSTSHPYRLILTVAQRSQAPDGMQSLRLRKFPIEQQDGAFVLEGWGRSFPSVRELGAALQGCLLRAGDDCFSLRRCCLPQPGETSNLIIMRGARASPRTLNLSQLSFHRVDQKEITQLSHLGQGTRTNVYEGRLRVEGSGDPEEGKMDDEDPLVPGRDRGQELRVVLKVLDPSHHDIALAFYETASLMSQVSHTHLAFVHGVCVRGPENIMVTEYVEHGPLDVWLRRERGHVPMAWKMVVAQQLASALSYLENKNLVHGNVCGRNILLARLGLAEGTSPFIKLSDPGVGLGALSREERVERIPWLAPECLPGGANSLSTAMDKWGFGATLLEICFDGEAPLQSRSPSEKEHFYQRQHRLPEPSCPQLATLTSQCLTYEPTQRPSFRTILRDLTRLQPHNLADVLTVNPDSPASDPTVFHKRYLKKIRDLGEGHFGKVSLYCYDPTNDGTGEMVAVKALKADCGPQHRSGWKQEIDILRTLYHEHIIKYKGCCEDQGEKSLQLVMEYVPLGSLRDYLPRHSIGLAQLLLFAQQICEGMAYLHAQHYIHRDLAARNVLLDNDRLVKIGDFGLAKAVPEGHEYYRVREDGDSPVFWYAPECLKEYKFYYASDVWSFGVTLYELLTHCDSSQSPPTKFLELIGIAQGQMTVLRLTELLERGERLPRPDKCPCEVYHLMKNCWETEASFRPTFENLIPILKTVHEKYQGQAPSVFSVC
Type: biochemical

IC50 [nM]	Compound
1.1	O=C(Nc1cc2c(Cl)cncc2s1)[C@@H]1C[C@H]1c1ccc(S(=O)(=O)Nc2ccccn2)cc1 [Compound 7]
35	O=C(NCc1ncccn1)c1csc(C2CC2C(=O)Nc2cc3c(Cl)cncc3s2)c1 (centres unmarked) [Compound 20]
8	Cc1cncc2sc(NC(=O)[C@@H]3C[C@H]3c3ccc(S(=O)(=O)Nc4ccccn4)cc3)cc12 [Compound 6]

Each molecule was assayed against JAK1 (Homo sapiens (Human), UniProt P23458) (assay: JAK Kinase Assay (JAK1)). Details: KINASE-GLO luminescent kinase assay.
Type: biochemical

IC50 [nM]	Compound
350	O=C(Nc1cc2c(Cl)cncc2s1)[C@@H]1C[C@H]1c1ccccc1 [Compound 15]
